The target of series [1] is T1, Neuronal acetylcholine receptor; alpha3/beta2 (Homo sapiens, UniProt P17787+P32297). Nature of the series: Antagonist activity at human alpha3beta2 nAChR expressed in Xenopus laevis oocytes assessed as inhibition of ACh-induced current amplitude at -80 mV holding potential in presence of BAPTA-AM at 10 uM by two-electrode voltage clamp method. In kind it is cell-based. The settings on record: Oocyte, filed as antagonist.

For series [2], the target named is T2, Neuronal acetylcholine receptor; alpha9/alpha10 (Homo sapiens) (UniProt Q9UGM1+Q9GZZ6). The series can be described thus: Antagonist activity at human alpha9alpha10 nAChR expressed in Xenopus laevis oocytes assessed as inhibition of ACh-induced current amplitude at -80 mV holding potential at 10 uM by two-electrode voltage clamp method. The settings on record: Oocyte. It is filed as cell-based.

Series [3] has as its target T3, Neuronal acetylcholine receptor; alpha3/beta4 (Homo sapiens) (UniProt P30926+P32297). Nature of the series: Antagonist activity at human alpha3beta4 nAChR expressed in Xenopus laevis oocytes assessed as inhibition of ACh-induced current amplitude at -80 mV holding potential at 10 uM by two-electrode voltage clamp method. It is filed as cell-based. The following applies: Oocyte, filed as antagonist.

Series [4] addresses T1, Neuronal acetylcholine receptor; alpha3/beta2. Nature of the series: Antagonist activity at human alpha3beta2 nAChR expressed in Xenopus laevis oocytes assessed as inhibition of ACh-induced current amplitude at -80 mV holding potential by two-electrode voltage clamp method. It is filed as cell-based, Oocyte.
Series [5] shares this target. The series can be described thus: Antagonist activity at human alpha3beta2 nAChR expressed in Xenopus laevis oocytes assessed as inhibition of ACh-induced current amplitude at -80 mV holding potential at 10 uM by two-electrode voltage clamp method. In kind it is cell-based. The settings on record: Oocyte, filed as antagonist.
Series [6] deals with T2, Neuronal acetylcholine receptor; alpha9/alpha10 (Homo sapiens). The series can be described thus: Antagonist activity at human alpha9alpha10 nAChR expressed in Xenopus laevis oocytes assessed as inhibition of ACh-induced current amplitude at -80 mV holding potential at 1 uM by two-electrode voltage clamp method. It is filed as cell-based. The settings on record: Oocyte, filed as antagonist.

Series [7] has as its target T3, Neuronal acetylcholine receptor; alpha3/beta4 (Homo sapiens). Nature of the series: Antagonist activity at human alpha3beta4 nAChR expressed in Xenopus laevis oocytes assessed as inhibition of ACh-induced current amplitude at -80 mV holding potential in presence of BAPTA-AM at 10 uM by two-electrode voltage clamp method. In kind it is cell-based. The settings on record: Oocyte, filed as antagonist.

Series [8] concerns the target Neuronal acetylcholine receptor subunit alpha-7 (Rattus norvegicus) (UniProt Q05941). Nature of the series: Inhibition of rat neuronal alpha7 nAChR expressed in Xenopus laevis oocytes assessed as inhibition of ACh-induced current amplitude at 1 uM by two-electrode voltage clamp method. It is filed as cell-based. The settings on record: Oocyte, filed as antagonist.
The target in series [9] is T4, Neuronal acetylcholine receptor subunit alpha-7 (Homo sapiens, UniProt P36544). Nature of the series: Antagonist activity at human alpha7 nAChR expressed in Xenopus laevis oocytes assessed as inhibition of ACh-induced current amplitude at -80 mV holding potential at 1 uM by two-electrode voltage clamp method. In kind it is cell-based. The following applies: Oocyte.

For another series, the system named is Oocyte. Nature of the series: Antagonist activity at rat alpha9alpha10 nAChR expressed in Xenopus laevis oocytes assessed as inhibition of ACh-induced current amplitude at 10 uM by two-electrode voltage clamp method. In kind it is cell-based. The following applies: filed as antagonist.
Series [10] concerns the target T3, Neuronal acetylcholine receptor; alpha3/beta4 (Homo sapiens). Nature of the series: Antagonist activity at human alpha3beta4 nAChR expressed in Xenopus laevis oocytes assessed as inhibition of ACh-induced current amplitude at -80 mV holding potential at 1 uM by two-electrode voltage clamp method. It is filed as cell-based. The settings on record: Oocyte, filed as antagonist.

Series [11] deals with T4, Neuronal acetylcholine receptor subunit alpha-7. The series can be described thus: Antagonist activity at human alpha7 nAChR expressed in Xenopus laevis oocytes assessed as inhibition of ACh-induced current amplitude at -80 mV holding potential at 10 uM by two-electrode voltage clamp method. It is filed as cell-based. The following applies: Oocyte, filed as antagonist.

Series [12] concerns the target T1, Neuronal acetylcholine receptor; alpha3/beta2. Nature of the series: Antagonist activity at human alpha3beta2 nAChR expressed in Xenopus laevis oocytes assessed as inhibition of ACh-induced current amplitude at -80 mV holding potential at 1 uM by two-electrode voltage clamp method. It is filed as cell-based. The settings on record: Oocyte.
Series [13] in a line: Antagonist activity at rat alpha9alpha10 nAChR expressed in Xenopus laevis oocytes assessed as inhibition of ACh-induced current amplitude by two-electrode voltage clamp method. In kind it is cell-based. The following applies: Oocyte.
Series [14] has as its target Neuronal acetylcholine receptor; alpha9/alpha10 (Homo sapiens, UniProt Q9GZZ6+Q9UGM1). The series can be described thus: Antagonist activity at human alpha9alpha10 nAChR expressed in Xenopus laevis oocytes assessed as inhibition of ACh-induced current amplitude at -80 mV holding potential by two-electrode voltage clamp method. In kind it is cell-based, Oocyte.
The target in series [15] is T5, Neuronal acetylcholine receptor; alpha4/beta2 (Homo sapiens) (UniProt P17787+P43681). The series can be described thus: Antagonist activity at human alpha4beta2 nAChR expressed in Xenopus laevis oocytes assessed as inhibition of ACh-induced current amplitude at -80 mV holding potential at 10 uM by two-electrode voltage clamp method. It is filed as cell-based. The settings on record: Oocyte, filed as antagonist.

In series [16] the target is T5, Neuronal acetylcholine receptor; alpha4/beta2 (Homo sapiens). Nature of the series: Antagonist activity at human alpha4beta2 nAChR expressed in Xenopus laevis oocytes assessed as inhibition of ACh-induced current amplitude at -80 mV holding potential at 1 uM by two-electrode voltage clamp method. In kind it is cell-based. The settings on record: Oocyte, filed as antagonist.

A short description of series [17]: Toxicity in mouse assessed as abnormal motor behavior. The settings on record: in vivo.
The species entered for another series is Rattus norvegicus. The series can be described thus: Analgesic activity in chronic constriction injury-induced mechanical pain rat model assessed as increase in paw withdrawal latency measured after 24 hrs. It is filed as functional, organism-based. The settings on record: DDE = dose-dependent effect.
Series [18] concerns Mus musculus. Nature of the series: Analgesic activity in chronic constriction injury-induced mechanical pain mouse model assessed as increase in paw withdrawal latency at 0.5 ug/kg measured after 12 hrs. The following applies: dose 5.0 µg/kg. It is filed as functional, organism-based.
Series [19] concerns the target T3, Neuronal acetylcholine receptor; alpha3/beta4 (Homo sapiens). Nature of the series: Antagonist activity at human alpha3beta4 nAChR expressed in Xenopus laevis oocytes assessed as inhibition of ACh-induced current amplitude at -80 mV holding potential at 100 nM by two-electrode voltage clamp method. It is filed as cell-based. The settings on record: Oocyte.
The target of series [20] is T2, Neuronal acetylcholine receptor; alpha9/alpha10 (Homo sapiens). Nature of the series: Antagonist activity at human alpha9alpha10 nAChR expressed in Xenopus laevis oocytes assessed as inhibition of ACh-induced current amplitude at -80 mV holding potential at 100 nM by two-electrode voltage clamp method. The settings on record: Oocyte. In kind it is cell-based.
Series [21] deals with T4, Neuronal acetylcholine receptor subunit alpha-7. Nature of the series: Antagonist activity at human alpha7 nAChR expressed in Xenopus laevis oocytes assessed as inhibition of ACh-induced current amplitude at -80 mV holding potential at 100 nM by two-electrode voltage clamp method. In kind it is cell-based. The following applies: Oocyte, filed as antagonist.
For series [22] the target is unchanged. Nature of the series: Antagonist activity at human alpha7 nAChR expressed in Xenopus laevis oocytes assessed as inhibition of ACh-induced current amplitude at -80 mV holding potential in presence of BAPTA-AM by two-electrode voltage clamp method. In kind it is cell-based, Oocyte.
The target of series [23] is T5, Neuronal acetylcholine receptor; alpha4/beta2 (Homo sapiens). The series can be described thus: Antagonist activity at human alpha4beta2 nAChR expressed in Xenopus laevis oocytes assessed as inhibition of ACh-induced current amplitude at -80 mV holding potential in presence of BAPTA-AM at 100 nM by two-electrode voltage clamp method. It is filed as cell-based. The following applies: Oocyte.

Series [24] relates to Mus musculus. The series can be described thus: Analgesic activity in chronic constriction injury-induced mechanical pain mouse model assessed as increase in paw withdrawal latency at 2.5 ug/kg measured after 12 hrs. In kind it is functional, organism-based. The following applies: dose 2.5 µg/kg.
Series [25] relates to Mus musculus. The series can be described thus: Analgesic activity in chronic constriction injury-induced mechanical pain mouse model assessed as increase in paw withdrawal latency at 25 ug/kg measured after 24 hrs. It is filed as functional, organism-based. The settings on record: dose 25.0 µg/kg.
Series [26] addresses T1, Neuronal acetylcholine receptor; alpha3/beta2. The series can be described thus: Antagonist activity at human alpha3beta2 nAChR expressed in Xenopus laevis oocytes assessed as inhibition of ACh-induced current amplitude at -80 mV holding potential at 100 nM by two-electrode voltage clamp method. It is filed as cell-based. The following applies: Oocyte, filed as antagonist.

Series [27] addresses T4, Neuronal acetylcholine receptor subunit alpha-7. Nature of the series: Antagonist activity at human alpha7 nAChR expressed in Xenopus laevis oocytes assessed as inhibition of ACh-induced current amplitude at -80 mV holding potential by two-electrode voltage clamp method. It is filed as cell-based, Oocyte.

In ChEMBL document CHEMBL5150017, “Mechanism of Action and Structure-Activity Relationship of α-Conotoxin Mr1.1 at the Human α9α10 Nicotinic Acetylcholine Receptor” (J Med Chem, 2022) one finds inhibition, IC50 and Activity data, which are given here for five compounds.

Activity calls are given as the source filed them. The calls are words filed in the database; no cut-off is given here. Positions of bridges follow the written chain, without caps; N, C: chain ends. Non-standard residues stand in square brackets, D forms with d. Residues, ends and D or L forms follow the SMILES beside them. ξ: configuration not given here. ξDap = NCC(N)C(=O)O A value given as a limit tells only on which side of the number the result lay.

T4 sequence (P36544 whole entry): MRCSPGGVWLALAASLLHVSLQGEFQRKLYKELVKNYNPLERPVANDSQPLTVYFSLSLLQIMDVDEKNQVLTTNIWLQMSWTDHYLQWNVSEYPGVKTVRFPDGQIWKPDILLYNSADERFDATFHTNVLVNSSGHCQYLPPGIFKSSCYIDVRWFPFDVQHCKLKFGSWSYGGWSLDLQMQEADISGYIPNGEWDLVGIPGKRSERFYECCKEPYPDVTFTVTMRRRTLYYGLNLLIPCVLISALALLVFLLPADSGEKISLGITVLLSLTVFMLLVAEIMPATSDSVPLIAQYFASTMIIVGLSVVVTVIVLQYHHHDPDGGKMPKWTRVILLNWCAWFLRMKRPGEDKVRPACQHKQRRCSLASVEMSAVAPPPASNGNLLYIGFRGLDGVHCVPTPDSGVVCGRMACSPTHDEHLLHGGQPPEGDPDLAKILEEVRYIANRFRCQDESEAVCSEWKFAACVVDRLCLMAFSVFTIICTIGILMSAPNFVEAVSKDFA
T1 sequence (P17787 whole entry): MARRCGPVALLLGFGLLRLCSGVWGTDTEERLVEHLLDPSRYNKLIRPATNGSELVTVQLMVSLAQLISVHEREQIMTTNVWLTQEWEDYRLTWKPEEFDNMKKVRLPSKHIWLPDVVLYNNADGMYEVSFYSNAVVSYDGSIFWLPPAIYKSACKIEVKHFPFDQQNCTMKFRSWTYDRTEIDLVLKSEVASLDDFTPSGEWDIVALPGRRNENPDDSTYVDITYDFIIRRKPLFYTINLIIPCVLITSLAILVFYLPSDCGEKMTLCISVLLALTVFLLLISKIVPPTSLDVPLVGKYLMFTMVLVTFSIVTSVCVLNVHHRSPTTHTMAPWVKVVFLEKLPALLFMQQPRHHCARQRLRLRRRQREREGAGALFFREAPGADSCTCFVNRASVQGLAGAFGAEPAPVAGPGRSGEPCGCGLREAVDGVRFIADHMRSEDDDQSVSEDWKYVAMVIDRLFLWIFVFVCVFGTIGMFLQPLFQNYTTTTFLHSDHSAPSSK
T1 sequence (P32297 whole entry): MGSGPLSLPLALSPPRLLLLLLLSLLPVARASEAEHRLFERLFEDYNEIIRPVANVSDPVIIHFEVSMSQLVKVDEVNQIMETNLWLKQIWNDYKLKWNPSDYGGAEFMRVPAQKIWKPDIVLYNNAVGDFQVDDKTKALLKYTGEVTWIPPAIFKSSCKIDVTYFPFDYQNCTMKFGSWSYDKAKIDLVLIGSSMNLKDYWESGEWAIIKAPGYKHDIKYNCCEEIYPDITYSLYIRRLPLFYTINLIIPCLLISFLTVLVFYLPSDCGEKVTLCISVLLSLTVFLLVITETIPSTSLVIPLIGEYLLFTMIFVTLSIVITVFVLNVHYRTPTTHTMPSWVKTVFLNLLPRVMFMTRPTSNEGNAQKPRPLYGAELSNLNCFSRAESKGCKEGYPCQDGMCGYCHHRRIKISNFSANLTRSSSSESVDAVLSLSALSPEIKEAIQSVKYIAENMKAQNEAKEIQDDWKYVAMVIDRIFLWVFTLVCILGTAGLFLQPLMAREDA
Neuronal acetylcholine receptor; alpha9/alpha10, sequence (Q9UGM1 whole entry): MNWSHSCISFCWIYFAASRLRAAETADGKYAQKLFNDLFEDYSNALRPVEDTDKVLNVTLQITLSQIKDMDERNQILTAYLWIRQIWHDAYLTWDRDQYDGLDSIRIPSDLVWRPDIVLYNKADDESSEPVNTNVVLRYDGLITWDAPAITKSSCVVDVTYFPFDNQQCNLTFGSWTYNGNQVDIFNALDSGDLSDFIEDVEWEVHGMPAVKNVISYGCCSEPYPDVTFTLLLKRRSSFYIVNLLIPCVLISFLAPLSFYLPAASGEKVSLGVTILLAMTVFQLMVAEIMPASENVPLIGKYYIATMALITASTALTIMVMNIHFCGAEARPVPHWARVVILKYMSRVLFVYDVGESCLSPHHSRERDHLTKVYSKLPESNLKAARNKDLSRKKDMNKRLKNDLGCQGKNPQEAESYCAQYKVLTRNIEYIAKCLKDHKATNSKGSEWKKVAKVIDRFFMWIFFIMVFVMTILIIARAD
Neuronal acetylcholine receptor; alpha9/alpha10, sequence (Q9GZZ6 whole entry): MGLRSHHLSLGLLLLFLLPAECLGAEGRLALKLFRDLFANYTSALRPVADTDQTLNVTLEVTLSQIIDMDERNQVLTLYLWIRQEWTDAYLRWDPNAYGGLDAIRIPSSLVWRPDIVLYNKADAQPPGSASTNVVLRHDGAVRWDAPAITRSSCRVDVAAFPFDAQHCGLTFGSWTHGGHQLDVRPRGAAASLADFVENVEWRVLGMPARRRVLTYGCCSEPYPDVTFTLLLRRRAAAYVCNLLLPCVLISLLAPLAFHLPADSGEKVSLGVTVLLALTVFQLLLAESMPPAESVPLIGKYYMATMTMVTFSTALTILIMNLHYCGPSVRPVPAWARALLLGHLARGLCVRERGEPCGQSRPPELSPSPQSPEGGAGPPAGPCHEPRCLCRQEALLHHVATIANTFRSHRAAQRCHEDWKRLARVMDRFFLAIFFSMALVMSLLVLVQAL
Neuronal acetylcholine receptor subunit alpha-7 (Rattus norvegicus), sequence (Q05941 whole entry): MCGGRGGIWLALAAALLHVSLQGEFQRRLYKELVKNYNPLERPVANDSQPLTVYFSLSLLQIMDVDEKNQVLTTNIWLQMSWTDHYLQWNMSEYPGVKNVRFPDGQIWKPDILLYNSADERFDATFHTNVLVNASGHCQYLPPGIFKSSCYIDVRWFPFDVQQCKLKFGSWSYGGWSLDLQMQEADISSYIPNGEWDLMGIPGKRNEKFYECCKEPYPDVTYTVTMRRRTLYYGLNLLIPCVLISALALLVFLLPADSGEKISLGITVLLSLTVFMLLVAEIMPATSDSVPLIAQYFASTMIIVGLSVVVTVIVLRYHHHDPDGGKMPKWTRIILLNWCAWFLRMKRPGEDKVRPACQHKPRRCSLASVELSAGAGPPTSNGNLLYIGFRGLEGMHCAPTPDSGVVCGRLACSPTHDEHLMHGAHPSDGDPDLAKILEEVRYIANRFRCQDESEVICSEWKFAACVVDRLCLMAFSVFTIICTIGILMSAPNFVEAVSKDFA

Turning to `CC[C@H](C)[C@@H]1NC(=O)[C@H](CC(=O)O)NC(=O)[C@@H]2CCCN2C(=O)[C@H](CC(N)=O)NC(=O)[C@H](CC(N)=O)NC(=O)[C@H](C(C)C)NC(=O)[C@H](CO)NC(=O)[C@@H]2CSSC[C@H](NC(=O)CN)C(=O)N[C@@H](CSSC[C@@H](C(N)=O)NC1=O)C(=O)N[C@@H](CO)C(=O)N[C@@H](Cc1cnc[nH]1)C(=O)N1CCC[C@H]1C(=O)N[C@@H](C)C(=O)N2` (H-GCCSHPACSVNNPDIC-NH2; disulfide 2-8, 3-16), the inhibition in series [1] is 50%; in series [2] (filed as antagonist), more than 90%; in series [3], more than 90%; in series [5] it was more than 90%; in series [6], 95%; in [7], 50%. Moreover, the inhibition in series [8] stood at 65%; in series [9], 25%; with Oocyte, 100%; in [10], 60%; in series [11] it was 80%; in series [12] it was 90%. The inhibition in [15] was determined as 40%. Further, the results for the half-inhibitory concentration (IC50) in [4], in [13] and in series [14] were 219 nM, 8.3 nM and 92 nM, respectively. Further, in series [16], the inhibition entry was “Active”.

Regarding `CC[C@H](C)[C@@H]1NC(=O)[C@H](CC(=O)O)NC(=O)[C@@H]2CCCN2C(=O)[C@H](CC(N)=O)NC(=O)[C@H](CC(N)=O)NC(=O)[C@H](C(C)C)NC(=O)[C@H](CO)NC(=O)[C@@H]2CSSC[C@H](NC(=O)CN)C(=O)N[C@@H](CSSC[C@@H](C(N)=O)NC1=O)C(=O)N[C@@H](CO)C(=O)N[C@@H](C)C(=O)N1CCC[C@H]1C(=O)N[C@@H](C)C(=O)N2` (H-GCCSAPACSVNNPDIC-NH2; disulfide 2-8, 3-16), the inhibition in series [2] came to 20%.

Regarding `CC[C@H](C)[C@@H]1NC(=O)[C@H](CC(=O)O)NC(=O)[C@@H]2CCCN2C(=O)[C@H](CC(N)=O)NC(=O)[C@H](CC(N)=O)NC(=O)[C@H](C(C)C)NC(=O)[C@H](C)NC(=O)[C@@H]2CSSC[C@H](NC(=O)CN)C(=O)N[C@@H](CSSC[C@@H](C(N)=O)NC1=O)C(=O)N[C@@H](CO)C(=O)N[C@@H](Cc1cnc[nH]1)C(=O)N1CCC[C@H]1C(=O)N[C@@H](C)C(=O)N2` (H-GCCSHPACAVNNPDIC-NH2; disulfide 2-8, 3-16), in series [2] (filed as antagonist), the inhibition result was “Active”.

As to `CC[C@H](C)[C@@H]1NC(=O)[C@H](CC(=O)O)NC(=O)[C@@H]2CCCN2C(=O)[C@H](CC(N)=O)NC(=O)[C@H](CC(N)=O)NC(=O)[C@H](C(C)C)NC(=O)[C@H](CO)NC(=O)[C@@H]2CSSC[C@H](NC(=O)CN)C(=O)N[C@@H](CSSC[C@@H](C(N)=O)NC1=O)C(=O)NC(CN)C(=O)N[C@@H](Cc1cnc[nH]1)C(=O)N1CCC[C@H]1C(=O)N[C@@H](C)C(=O)N2` (stereo partly specified) (H-GCC[ξDap]HPACSVNNPDIC-NH2; disulfide 2-8, 3-16), the IC50 in [4] is 20.6 nM; in series [22], 265 nM; in [13] it was 1.7 nM; in series [27], 259 nM; in [14], 4 nM. The figures for the Activity result (in [17]; in the series filed under Rattus norvegicus) were “Non-Toxic” and “Dde”, respectively. Further, the outcome with Mus musculus [18], in the series with Mus musculus [24] and in the series on Mus musculus [25] was Active. Besides, the inhibition in series [19] is 5%; in [20] (filed as antagonist), more than 85%; in [21], 90%; in series [12] (filed as antagonist), more than 95%; in series [23] it was 5%; in [26], 85%.

`CC[C@H](C)[C@@H]1NC(=O)[C@H](CC(=O)O)NC(=O)[C@@H]2CCCN2C(=O)[C@H](CC(N)=O)NC(=O)[C@H](CC(N)=O)NC(=O)[C@H](CCCCN)NC(=O)[C@H](CO)NC(=O)[C@@H]2CSSC[C@H](NC(=O)CN)C(=O)N[C@@H](CSSC[C@@H](C(N)=O)NC1=O)C(=O)N[C@@H](CO)C(=O)N[C@@H](Cc1cnc[nH]1)C(=O)N1CCC[C@H]1C(=O)N[C@@H](C)C(=O)N2` (H-GCCSHPACSKNNPDIC-NH2; disulfide 2-8, 3-16): the inhibition in [20] was less than 5%.
